ChEMBL document CHEMBL3785058, “Design and synthesis of novel 3-sulfonylpyrazol-4-amino pyrimidines as potent anaplastic lymphoma kinase (ALK) inhibitors” (Bioorg Med Chem Lett, 2016)
pIC50: −log10 of the molar value. Active and inactive are the calls of the source. No cut-off for these calls is given here.

Tests used:
[1] = test system: NCI-H2228; experiment: Antiproliferative activity against human NCI-H2228 cells after 96 hrs by CellTiter-Glo assay; type: functional, cell-based; conditions: NCI-H2228, 96 h
[2] = Antiproliferative activity against human KARPAS299 cells after 96 hrs by CellTiter-Glo assay; type: functional, cell-based; conditions: KARPAS-299, 96 h
[3] = Ratio of IC50 for human ERG to IC50 for human NCI-H2228 cells
[4] = test system: Mus musculus; experiment: In vivo inhibition of ALK in human KARPAS299 cells xenografted in mouse assessed as suppression of STAT3 phosphorylation at 20 mg/kg measured after 8 hrs; type: functional; conditions: KARPAS-299, 8 h
[5] = Half life in Balb/c nude mouse at 1 mg/kg, iv; type: ADME, organism-based; conditions: in vivo
[6] = AUC(0 to infinity) in Balb/c nude mouse at 1 mg/kg, iv; type: ADME, organism-based; set-up: dose 1 mg/kg, route intravenous, time infinity; conditions: in vivo
[7] = Volume of distribution in Balb/c nude mouse at 1 mg/kg, iv; type: ADME, organism-based; conditions: in vivo
[8] = Clearance in Balb/c nude mouse at 1 mg/kg, iv; type: ADME, organism-based; conditions: in vivo
[9] = Half life in Sprague-Dawley rat at 1 mg/kg, iv; type: ADME, organism-based; conditions: in vivo
[10] = AUC(0 to infinity) in Sprague-Dawley rat at 1 mg/kg, iv; type: ADME, organism-based; set-up: dose 1 mg/kg, route intravenous, time infinity; conditions: in vivo
[11] = Volume of distribution in Sprague-Dawley rat at 1 mg/kg, iv; type: ADME, organism-based; conditions: in vivo
[12] = Clearance in Sprague-Dawley rat at 1 mg/kg, iv; type: ADME, organism-based; conditions: in vivo
[13] = Half life in Beagle dog at 1 mg/kg, iv; type: ADME, organism-based, Canis lupus familiaris; conditions: in vivo
[14] = AUC(0 to infinity) in Beagle dog at 1 mg/kg, iv; type: ADME, organism-based, Canis lupus familiaris; set-up: dose 1 mg/kg, time infinity, route intravenous; conditions: in vivo
[15] = Volume of distribution in Beagle dog at 1 mg/kg, iv; type: ADME, organism-based, Canis lupus familiaris; conditions: in vivo
[16] = Clearance in Beagle dog at 1 mg/kg, iv; type: ADME, organism-based, Canis lupus familiaris; conditions: in vivo
[17] = Cmax in Balb/c nude mouse at 5 mg/kg, po; type: ADME, organism-based; set-up: dose 5 mg/kg, route oral; conditions: in vivo
[18] = Tmax in Balb/c nude mouse at 5 mg/kg, po; type: ADME, organism-based; conditions: in vivo
[19] = AUC(0 to infinity) in Balb/c nude mouse at 5 mg/kg, po; type: ADME, organism-based; set-up: dose 5 mg/kg, time infinity, route oral; conditions: in vivo
[20] = Oral bioavailability in Balb/c nude mouse at 5 mg/kg; type: ADME, organism-based; conditions: in vivo
[21] = Cmax in Sprague-Dawley rat at 5 mg/kg, po; type: ADME, organism-based; set-up: dose 5 mg/kg, route oral; conditions: in vivo
[22] = Tmax in Sprague-Dawley rat at 5 mg/kg, po; type: ADME, organism-based; conditions: in vivo
[23] = AUC(0 to infinity) in Sprague-Dawley rat at 5 mg/kg, po; type: ADME, organism-based; set-up: dose 5 mg/kg, route oral, time infinity; conditions: in vivo
[24] = Oral bioavailability in Sprague-Dawley rat at 5 mg/kg; type: ADME, organism-based; conditions: in vivo
[25] = Cmax in Beagle dog at 3 mg/kg, po; type: ADME, organism-based, Canis lupus familiaris; set-up: dose 3 mg/kg, route oral; conditions: in vivo
[26] = Tmax in Beagle dog at 3 mg/kg, po; type: ADME, organism-based, Canis lupus familiaris; conditions: in vivo
[27] = AUC(0 to infinity) in Beagle dog at 3 mg/kg, po; type: ADME, organism-based, Canis lupus familiaris; set-up: dose 3 mg/kg, route oral, time infinity; conditions: in vivo
[28] = Oral bioavailability in Beagle dog at 3 mg/kg; type: ADME, organism-based, Canis lupus familiaris; conditions: in vivo
[29] = test system: NCI-H2228; experiment: Antitumor activity against human NCI-H2228 cells xenografted in Balb/c nude mouse assessed as tumor growth inhibition at 3 mg/kg, po qd administered for two weeks measured on day 14 post last dose; type: functional; conditions: 336 h, read-out: TGI
[30] = test system: NCI-H2228; experiment: Antitumor activity against human NCI-H2228 cells xenografted in Balb/c nude mouse assessed as tumor growth inhibition at 30 mg/kg, po qd administered for two weeks measured on day 14 post last dose; type: functional; conditions: 336 h, read-out: TGI
[31] = test system: Mus musculus; experiment: Toxicity in Balb/c nude mouse xenografted with human NCI-H2228 cells assessed as change in body weight at 30 mg/kg, po qd administered for two weeks; type: organism-based; conditions: in vivo
[32] = test system: NCI-H2228; conditions: Homo sapiens
Description: Antitumor activity against human NCI-H2228 cells xenografted in Balb/c nude mouse assessed as tumor growth inhibition administered as po qd for two weeks

[33] = test system: NCI-H2228; conditions: Homo sapiens; remark: listed apart in the source
Description: Antitumor activity against human NCI-H2228 cells xenografted in Balb/c nude mouse assessed as tumor growth inhibition at 10 mg/kg, po qd administered for two weeks

[34] = test system: NCI-H2228; conditions: Homo sapiens; remark: listed apart in the source
Description: Antitumor activity against human NCI-H2228 cells xenografted in Balb/c nude mouse assessed as tumor growth inhibition at 30 mg/kg, po qd administered for two weeks measured after 1 week during compound dosing

[35] = molecular target: ALK tyrosine kinase receptor (Homo sapiens, UniProt Q9UM73); experiment: Inhibition of recombinant human wild type ALK using tyrosine kinase substrate-biotin after 30 mins by HTRF assay
Sequence of ALK tyrosine kinase receptor (Homo sapiens, UniProt Q9UM73) (Q9UM73 whole entry): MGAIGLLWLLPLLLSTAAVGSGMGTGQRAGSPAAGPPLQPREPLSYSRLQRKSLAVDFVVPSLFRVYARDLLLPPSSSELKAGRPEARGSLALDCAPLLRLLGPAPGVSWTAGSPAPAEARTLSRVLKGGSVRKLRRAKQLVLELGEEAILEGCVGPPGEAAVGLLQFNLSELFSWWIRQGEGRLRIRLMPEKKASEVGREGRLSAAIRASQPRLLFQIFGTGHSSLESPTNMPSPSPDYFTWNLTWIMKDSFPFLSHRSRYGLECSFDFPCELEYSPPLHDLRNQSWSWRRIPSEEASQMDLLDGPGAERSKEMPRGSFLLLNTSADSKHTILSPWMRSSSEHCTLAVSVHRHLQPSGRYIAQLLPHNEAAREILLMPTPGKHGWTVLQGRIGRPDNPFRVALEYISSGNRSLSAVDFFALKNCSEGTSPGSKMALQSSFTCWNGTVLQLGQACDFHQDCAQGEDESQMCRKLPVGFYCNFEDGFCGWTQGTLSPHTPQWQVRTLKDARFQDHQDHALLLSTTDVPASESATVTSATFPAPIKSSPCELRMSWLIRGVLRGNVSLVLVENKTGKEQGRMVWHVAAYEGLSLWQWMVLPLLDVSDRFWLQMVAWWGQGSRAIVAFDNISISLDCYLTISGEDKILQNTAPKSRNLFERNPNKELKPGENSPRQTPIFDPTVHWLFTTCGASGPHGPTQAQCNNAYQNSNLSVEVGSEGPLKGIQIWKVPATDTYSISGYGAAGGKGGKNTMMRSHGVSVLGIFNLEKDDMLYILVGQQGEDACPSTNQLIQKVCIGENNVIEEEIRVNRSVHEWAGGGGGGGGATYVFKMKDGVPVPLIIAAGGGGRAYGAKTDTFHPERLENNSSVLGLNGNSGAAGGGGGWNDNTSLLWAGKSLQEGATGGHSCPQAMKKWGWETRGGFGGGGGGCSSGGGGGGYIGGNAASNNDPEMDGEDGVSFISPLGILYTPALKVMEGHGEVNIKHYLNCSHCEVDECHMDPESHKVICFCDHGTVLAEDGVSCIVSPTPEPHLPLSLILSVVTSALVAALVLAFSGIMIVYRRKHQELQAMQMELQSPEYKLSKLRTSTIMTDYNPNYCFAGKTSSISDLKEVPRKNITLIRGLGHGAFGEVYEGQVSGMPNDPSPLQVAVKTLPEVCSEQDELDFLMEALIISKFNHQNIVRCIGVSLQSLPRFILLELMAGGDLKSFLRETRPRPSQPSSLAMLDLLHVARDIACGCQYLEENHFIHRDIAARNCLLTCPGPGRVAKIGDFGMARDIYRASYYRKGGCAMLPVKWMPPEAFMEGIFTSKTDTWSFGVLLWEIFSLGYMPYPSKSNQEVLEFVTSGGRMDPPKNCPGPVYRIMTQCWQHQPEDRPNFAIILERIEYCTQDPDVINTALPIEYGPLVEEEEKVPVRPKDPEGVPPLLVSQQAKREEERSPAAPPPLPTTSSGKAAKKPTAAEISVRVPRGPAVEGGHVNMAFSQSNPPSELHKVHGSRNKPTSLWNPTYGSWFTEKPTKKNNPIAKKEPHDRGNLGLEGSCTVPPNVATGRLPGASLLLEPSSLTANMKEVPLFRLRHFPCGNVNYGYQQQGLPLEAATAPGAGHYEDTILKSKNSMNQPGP

[36] = molecular target: ALK tyrosine kinase receptor (Homo sapiens, UniProt Q9UM73, L1196M); experiment: Inhibition of recombinant human ALK L1196M mutant using tyrosine kinase substrate-biotin after 30 mins by HTRF assay
Sequence of ALK tyrosine kinase receptor (Homo sapiens, UniProt Q9UM73, L1196M) (Q9UM73 19-1620 L1196M limits assumed): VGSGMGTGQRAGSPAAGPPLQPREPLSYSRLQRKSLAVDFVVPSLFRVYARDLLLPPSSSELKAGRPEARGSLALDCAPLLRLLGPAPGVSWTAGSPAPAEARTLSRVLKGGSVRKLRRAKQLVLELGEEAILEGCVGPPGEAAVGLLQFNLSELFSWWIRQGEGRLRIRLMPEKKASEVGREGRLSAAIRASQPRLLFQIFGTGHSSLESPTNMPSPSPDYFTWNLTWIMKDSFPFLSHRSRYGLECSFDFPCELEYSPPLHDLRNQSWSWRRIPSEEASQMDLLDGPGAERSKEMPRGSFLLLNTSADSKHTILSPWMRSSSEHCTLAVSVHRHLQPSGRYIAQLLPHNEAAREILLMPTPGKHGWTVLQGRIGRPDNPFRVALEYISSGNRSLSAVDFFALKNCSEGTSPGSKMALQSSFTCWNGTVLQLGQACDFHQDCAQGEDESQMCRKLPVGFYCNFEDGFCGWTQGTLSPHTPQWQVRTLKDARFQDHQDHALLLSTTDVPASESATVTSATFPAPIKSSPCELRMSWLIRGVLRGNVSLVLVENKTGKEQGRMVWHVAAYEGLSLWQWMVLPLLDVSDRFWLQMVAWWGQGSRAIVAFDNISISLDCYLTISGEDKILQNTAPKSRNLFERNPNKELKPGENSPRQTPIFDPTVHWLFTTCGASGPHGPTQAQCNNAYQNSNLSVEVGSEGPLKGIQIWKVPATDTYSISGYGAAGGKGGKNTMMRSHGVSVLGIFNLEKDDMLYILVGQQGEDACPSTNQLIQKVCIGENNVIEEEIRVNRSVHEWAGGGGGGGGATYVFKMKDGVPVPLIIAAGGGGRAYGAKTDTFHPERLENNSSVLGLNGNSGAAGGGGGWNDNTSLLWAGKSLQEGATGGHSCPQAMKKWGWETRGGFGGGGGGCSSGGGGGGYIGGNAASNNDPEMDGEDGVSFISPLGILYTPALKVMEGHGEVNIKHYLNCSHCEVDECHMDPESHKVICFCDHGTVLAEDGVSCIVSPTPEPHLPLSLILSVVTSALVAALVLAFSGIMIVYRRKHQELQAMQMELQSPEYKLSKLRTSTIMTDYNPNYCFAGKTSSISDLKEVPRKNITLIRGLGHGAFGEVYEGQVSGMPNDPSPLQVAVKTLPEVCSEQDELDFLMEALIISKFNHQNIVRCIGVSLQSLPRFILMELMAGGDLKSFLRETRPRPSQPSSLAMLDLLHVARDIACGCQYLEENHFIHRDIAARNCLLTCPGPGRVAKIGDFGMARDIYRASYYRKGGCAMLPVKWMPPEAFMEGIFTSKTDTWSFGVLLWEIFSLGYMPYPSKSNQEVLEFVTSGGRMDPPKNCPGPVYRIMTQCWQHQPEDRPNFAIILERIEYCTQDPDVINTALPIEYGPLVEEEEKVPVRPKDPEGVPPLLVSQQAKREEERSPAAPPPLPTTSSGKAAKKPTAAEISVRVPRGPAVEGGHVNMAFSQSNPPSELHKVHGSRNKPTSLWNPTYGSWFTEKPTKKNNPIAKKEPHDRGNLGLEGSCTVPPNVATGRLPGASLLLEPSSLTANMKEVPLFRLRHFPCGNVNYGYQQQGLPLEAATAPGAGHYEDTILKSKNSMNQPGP

## Cc1nc(S(=O)(=O)C(C)C)c(Nc2nc(Nc3cc(C)c(C4CCN(C)CC4)cc3OC3CC3)ncc2Cl)s1
[1]
  pIC50: 6.82

## Cc1cc(Nc2ncc(F)c(Nc3cn(C)nc3S(=O)(=O)C(C)C)n2)c(OC2CC2)cc1C1CCN(C)CC1
[1]
  pIC50: 7.09

## CC(=O)N1CCN([C@H]2CC[C@H](c3cc(OC4CC4)c(Nc4ncc(Cl)c(Nc5cn(C)nc5S(=O)(=O)C(C)C)n4)cc3C)CC2)CC1
[2]
  pIC50: 8.15
[1]
  pIC50: 7.12
[3]
  Ratio IC50: 33
[4]
  inhibition in vivo at 20 mg/kg: 79.2%
[5]
  half-life: 1.4 h
[6]
  AUC(0-inf): 445 ng·h/mL
[7]
  Vd: 4.6 L/kg
[8]
  clearance: 37.5 mL/min/kg
[9]
  half-life: 4.5 h
[10]
  AUC(0-inf): 770 ng·h/mL
[11]
  Vd: 8.5 L/kg
[12]
  clearance: 21.9 mL/min/kg
[13]
  half-life: 6.4 h
[14]
  AUC(0-inf): 1500 ng·h/mL
[15]
  Vd: 6.1 L/kg
[16]
  clearance: 11.1 mL/min/kg
[17]
  Cmax: 446 ng/mL
[18]
  Tmax: 0.5 h
[19]
  AUC(0-inf): 1700 ng·h/mL
[20]
  bioavailability: 76.5%
[21]
  Cmax: 220 ng/mL
[22]
  Tmax: 6 h
[23]
  AUC(0-inf): 3200 ng·h/mL
[24]
  bioavailability: 85.3%
[25]
  Cmax: 355 ng/mL
[26]
  Tmax: 1 h
[27]
  AUC(0-inf): 3340 ng·h/mL
[28]
  bioavailability: 74%
[29]
  inhibition in vivo at 3 mg/kg: 50%
[30]
  inhibition in vivo at 30 mg/kg: 140%
[31]
  Activity: Non-toxic
[32]
  TGI: Dose-dependent effect
[33]
  TGI: Active
[34]
  TGI: Active

## Cc1cc(Nc2ncc(Cl)c(Nc3cn(C)nc3S(C)(=O)=O)n2)c(OC(C)C)cc1C1CCNCC1
[35]
  pIC50: 7.25
[36]
  pIC50: 7.03
[2]
  pIC50: 6.54

## Cc1cc(Nc2ncnc(Nc3cn(C)nc3S(=O)(=O)C(C)C)n2)c(OC2CC2)cc1C1CCN(C)CC1
[35]
  pIC50: 7.44
[36]
  pIC50: 6.95

## CCN(CC)[C@H]1CC[C@H](c2cc(OC3CC3)c(Nc3ncc(Cl)c(Nc4cn(C)nc4S(=O)(=O)C(C)C)n3)cc2C)CC1
[1]
  pIC50: 7.17

## Cc1cc(Nc2ncc(Cl)c(Nc3cn(C)nc3S(=O)(=O)C(C)C)n2)c(OC2CC2)cc1C1CCC(N2CCN(C)CC2)CC1 (mixture of isomers)
[1]
  pIC50: 6.85
[3]
  Ratio IC50: 6

## CNC(=O)c1nn(C)cc1Nc1nc(Nc2cc(C)c(C3CCN(C)CC3)cc2OC2CC2)ncc1Cl
[35]
  pIC50: 7.92
[36]
  pIC50: 7.62
[1]
  pIC50: 6.18

## CCn1cc(Nc2nc(Nc3cc(C)c(C4CCNCC4)cc3OC(C)C)ncc2Cl)c(S(=O)(=O)C(C)C)n1
[35]
  pIC50: 7.70
[36]
  pIC50: 7.55
[2]
  pIC50: 7.17
[1]
  pIC50: 6.12

## Cc1cc(Nc2ncc(Cl)c(Nc3cn(C)nc3S(=O)(=O)CC(C)C)n2)c(OC(C)C)cc1C1CCNCC1
[2]
  pIC50: 7.62
[1]
  pIC50: 6.71

## CCC(C)S(=O)(=O)c1nn(C)cc1Nc1nc(Nc2cc(C)c(C3CCNCC3)cc2OC(C)C)ncc1Cl (stereo not drawn)
[2]
  pIC50: 7.68
[1]
  pIC50: 6.65

## Cc1cc(Nc2ncc(Cl)c(Nc3cn(C)nc3S(=O)(=O)C(C)C)n2)c(OC2CC2)cc1[C@H]1CC[C@H](NC(C)C)CC1
[2]
  pIC50: 8.30
[1]
  pIC50: 7.27
[3]
  Ratio IC50: 16

## Cc1cc(Nc2ncc(Cl)c(Nc3cn(C)nc3S(=O)(=O)C(C)C)n2)c(OC(C)C)cc1C1CCNCC1
[2]
  pIC50: 7.80
[1]
  pIC50: 6.70

## Cc1cc(Nc2ncc(Cl)c(Nc3cn(C)nc3S(=O)(=O)C(C)C)n2)c(OC2CC2)cc1C1CCN(C)CC1
[35]
  pIC50: 9.00
[1]
  pIC50: 7.41

## Cc1cc(Nc2ncc(Cl)c(Nc3cn(C)nc3S(=O)(=O)C(C)C(C)C)n2)c(OC(C)C)cc1C1CCNCC1 (stereo not drawn)
[35]
  pIC50: 6.12
[36]
  pIC50: 5.41
[2]
  pIC50: < 5.00
[1]
  pIC50: < 5.00

## Cc1cc(Nc2ncc(Cl)c(Nc3cn(C4CC4)nc3S(=O)(=O)C(C)C)n2)c(OC(C)C)cc1C1CCNCC1
[2]
  pIC50: 7.43
[1]
  pIC50: 6.61
